Experimental data taken from patent publication US9617282B2, “Macrocyclic compounds as IRAK4 inhibitors for the treatment of inflammatory diseases” (BIOGEN MA INC., priority 2013, dated 2017).

What was measured:
IRAK4 = IRAK4 (Homo sapiens (Human), UniProt Q9NWZ3); test: IRAK-4 biochemical kinase assay, AlphaScreen format; details: 1 nM IRAK4, 1.6 μM peptide, 10 μM ATP, 3.5 h at RT; class symbols
Experimental: The biochemical assay is in a AlphaScreen format. The kinase reaction is based on the IRAK-4 phosphorylation of a biotin labeled peptide. The phosphopeptide is incubated with anti-phosphothreonine antibody as well as streptavidin- and protein A-coated beads. Binding of the protein-A coated beads to the antibody and the streptavidin beads to the peptide, leads to an energy transfer from one bead to the other, ultimately producing a luminescent/fluorescent signal.

A549 cells = test: Cell-based assay, IL-6 ELISA quantification in IL-1 beta stimulated A549 cells; details: 2 ng/ml human IL-1 beta overnight, class symbols, read-out: Celluar Data EC50
Experimental: The cell-based assays is based on IL-6 ELISA quantification. Briefly, A549 cells are cultured in DMEM with 10% FBS medium. When cells reach 80% confluence they are trypsin treated and seeded in 96-well plate at 2.5×10^4 cells/well. Then, 20 ul of compound serial dilutions (starting at 10 uM, 10 points) are added to the cell plate; incubate for 1 hour at 37 C and stimulated with 2 ng/ml human IL-1 beta 37 C overnight. The next day 100 ul of cell supernatant per well are analyzed on a Human IL-6 Quantikine ELISA kit from R&D Systems.

Chain of IRAK4 (Q9NWZ3 whole entry, species assumed): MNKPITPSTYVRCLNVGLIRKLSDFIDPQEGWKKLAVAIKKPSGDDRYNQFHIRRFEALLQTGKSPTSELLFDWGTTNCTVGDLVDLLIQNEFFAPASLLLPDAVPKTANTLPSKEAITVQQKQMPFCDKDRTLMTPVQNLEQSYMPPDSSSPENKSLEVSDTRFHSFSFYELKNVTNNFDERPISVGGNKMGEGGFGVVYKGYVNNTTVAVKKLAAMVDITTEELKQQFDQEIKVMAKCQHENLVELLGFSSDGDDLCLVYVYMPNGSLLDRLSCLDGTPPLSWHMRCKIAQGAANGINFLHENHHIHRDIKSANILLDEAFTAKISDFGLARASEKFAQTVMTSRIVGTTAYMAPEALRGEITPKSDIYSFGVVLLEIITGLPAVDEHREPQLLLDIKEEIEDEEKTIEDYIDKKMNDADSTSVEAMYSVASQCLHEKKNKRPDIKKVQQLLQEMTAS

SMILES | IC50 (IRAK4) [nM] | EC50 (A549 cells) [nM]
CN1CCN(CCn2ncc3c2C(=O)NCCOCCNc2cc(ccn2)-c2nc(cs2)C(=O)N3)CC1 [Example 142] | < 1000 | > 10000
NC(=O)CCn1cc2c(n1)C(=O)NCCOCCOc1cc(ccn1)-c1nc(cs1)C(=O)N2 [Example 151] | < 1000 | > 10000
CN(C)CCn1cc2c(n1)C(=O)NCCOCCOc1cc(ccn1)-c1nc(cs1)C(=O)N2 [Example 111] | < 1000 | > 10000
O=C1Nc2cn(CC3CCNCC3)nc2C(=O)NCCOCCOc2cc(ccn2)-c2nc1cs2 [Example 160] | < 1000 | > 10000
CC(C)(C)OC(=O)N1CCN(CCn2ncc3c2C(=O)NCCOCCOc2cc(ccn2)-c2nc(cs2)C(=O)N3)CC1 [Example 108] | < 1000 | > 10000
CC(C)n1cc2c(n1)C(=O)NCCOCCOc1cc(ccn1)-c1nc(cs1)C(=O)N2 [Example 162] | < 100 | > 10000
O=C1Nc2cn(C3CCCCO3)nc2C(=O)NCCOCCOc2cc(ccn2)-c2nc1cs2 (centres unmarked) [Example 110] | < 100 | < 10000
CN1CCN(CCn2cc3c(n2)C(=O)NCCOCCNc2cc(ccn2)-c2nc(cs2)C(=O)N3)CC1 [Example 143] | < 100 | < 10000
Cn1cc2c(n1)C(=O)NCCOCCc1cc(ccn1)-c1nc(cs1)C(=O)N2 [Example 133] | < 1000 | < 10000
O=C1Nc2cn(CCC3CCNCC3)nc2C(=O)NCCOCCOc2cc(ccn2)-c2nc1cs2 [Example 155] | < 100 | > 10000
CN1CCCc2cc(ccn2)-c2nc(cs2)C(=O)Nc2cn(C3CCOCC3)nc2C(=O)NCC1 [Example 169] | < 100 | > 10000
O=C1Nc2cn(C3CCOCC3)nc2C(=O)NCCOCCCn2cc(cn2)-c2nc1cs2 [Example 136] | < 100 | < 1000
O=C1Nc2cn(CCN3CCCCC3)nc2C(=O)NCCOCCNc2cc(ccn2)-c2nc1cs2 [Example 119] | < 100 | < 1000
Cn1cc2c(n1)C(=O)NCCOCCCOc1cc(ccn1)-c1nc(cs1)C(=O)N2 [Example 122] | < 100 | < 1000
O=C1NC[C@@H]2CC[C@@H](C2)OCCCNc2cc(ccn2)-c2nc1cs2 [Example 83] | < 100 | < 10000
O=C1Nc2cn(CCCO)nc2C(=O)NCCOCCOc2cc(ccn2)-c2nc1cs2 [Example 152] | < 100 | > 10000
O=C(O)Cn1cc2c(n1)C(=O)NCCOCCOc1cc(ccn1)-c1nc(cs1)C(=O)N2 [Example 146] | < 10000 | > 10000

SMILES | IC50 (IRAK4) [nM] | EC50 (A549 cells) [nM]
CC(C)(C)OC(=O)Cn1cc2c(n1)C(=O)NCCOCCOc1cc(ccn1)-c1nc(cs1)C(=O)N2 [Example 137] | < 100 | > 10000
CN(C)C(=O)Cn1cc2c(n1)C(=O)NCCOCCOc1cc(ccn1)-c1nc(cs1)C(=O)N2 [Example 166] | < 1000 | > 10000
O=C1Nc2cn(C3CCOCC3)nc2C(=O)NCCCCOc2cc(ccn2)-c2nc1cs2 [Example 90] | < 100 | < 10000
Cn1cc2c(n1)C(=O)NCCCCNc1cc(ccn1)-c1nc(cs1)C(=O)N2 [Example 131] | < 100 | < 1000
O=C1Nc2cnccc2C(=O)NCCOCCOc2cc(ccn2)-c2nc1cs2 [Example 130] | < 100 | < 1000
CNC(=O)Cn1cc2c(n1)C(=O)NCCOCCOc1cc(ccn1)-c1nc(cs1)C(=O)N2 [Example 161] | < 100 | > 10000
O=C1Nc2cccnc2C(=O)NCCOCCOc2cc(ccn2)-c2nc1cs2 [Example 128] | < 100 | > 10000
CN1CCC(Cn2cc3c(n2)C(=O)NCCOCCOc2cc(ccn2)-c2nc(cs2)C(=O)N3)CC1 [Example 158] | < 1000 | > 10000
Cn1cc2c(n1)C(=O)NCCOCCCCc1cc(ccn1)-c1nc(cs1)C(=O)N2 [Example 217] | < 100 | < 10000
O=C1Nc2ccncc2C(=O)NCCOCCOc2cc(ccn2)-c2nc1cs2 [Example 129] | < 100 | < 1000
O=C1Nc2cn(CCN3CCOCC3)nc2C(=O)NCCOCCOc2cc(ccn2)-c2nc1cs2 [Example 112] | < 100 | < 10000
O=C1NC[C@H]2CC[C@@H](C2)OCCCNc2cc(ccn2)-c2nc1cs2 [Example 82] | < 1000 | < 10000
O=C1Nc2ccccc2OCCCCCNc2cc(ccn2)-c2nc1co2 [Compound 2] | < 100 | < 1000
O=C1Nc2cnn(CCN3CCNCC3)c2C(=O)NCCOCCOc2cc(ccn2)-c2nc1cs2 [Example 109] | < 10000 | > 10000
Cn1cc2c(n1)C(=O)NCCCCCCCCNc1cc(ccn1)-c1nc(co1)C(=O)N2 [Compound 29] | < 100 | < 1000
O=C1Nc2cn(CCN3CCNCC3)nc2C(=O)NCCOCCNc2cc(ccn2)-c2nc1cs2 [Example 145] | < 100 | < 10000

Other lines, results leading:

IC50 (IRAK4) [nM] | EC50 (A549 cells) [nM] | SMILES
< 100 | > 10000 | CN(C)CCCn1cc2c(n1)C(=O)NCCOCCOc1cc(ccn1)-c1nc(cs1)C(=O)N2 [Example 138]
< 100 | < 1000 | O=C1Nc2ccccc2OC(CO)CCCCNc2cc(ccn2)-c2nc1co2 (centres unmarked) [Compound 12]
< 100 | > 10000 | CC(C)(C)OC(=O)N1CCN(CCn2cc3c(n2)C(=O)NCCOCCOc2cc(ccn2)-c2nc(cs2)C(=O)N3)CC1 [Example 114]
< 100 | > 10000 | CN(C)CCNC(=O)c1ccc2c(c1)NC(=O)c1csc(n1)-c1ccnc(c1)NCCCCCO2 [Compound 16]
< 100 | < 10000 | O=C1Nc2cn(C3CCOCC3)nc2C(=O)NCCOCCCCc2cc(ccn2)-c2nc1cs2 [Example 218]
< 100 | < 1000 | O=C1Nc2cn(C3CCOCC3)nc2C(=O)NCCOCCCc2cc(ccn2)-c2nc1cs2 [Compound 47]
< 100 | > 10000 | O=C1Nc2ccccc2OCCCCOCc2cc(ccn2)-c2nc1co2 [Compound 4]
< 100 | > 10000 | CCOC(=O)CCn1cc2c(n1)C(=O)NCCOCCOc1cc(ccn1)-c1nc(cs1)C(=O)N2 [Example 150]
< 100 | > 10000 | CN1CCC(CCn2cc3c(n2)C(=O)NCCOCCOc2cc(ccn2)-c2nc(cs2)C(=O)N3)CC1 [Example 153]
< 100 | < 10000 | O=C1Nc2cn(C3CCOCC3)nc2C(=O)NCCOCCOc2cc(ccn2)-c2nc1cs2 [Compound 44]
< 100 | < 1000 | Cn1cc2c(n1)C(=O)NCCCCOc1cc(ccn1)-c1nc(cs1)C(=O)N2 [Example 91]
< 100 | > 10000 | O=C1Nc2cn(C3CCOCC3)nc2C(=O)NCCOCCc2cc(ccn2)-c2nc1cs2 [Example 134]
< 100 | < 1000 | O=C1Nc2cn(C3CCOCC3)nc2C(=O)NCCCCCc2cc(ccn2)-c2nc1cs2 [Example 95]
< 100 | < 1000 | O=C1Nc2cn(C3CCOCC3)nc2C(=O)NCCCCNc2cc(ccn2)-c2nc1cs2 [Example 132]
< 100 | < 10000 | O=C1Nc2cn(C3CCOCC3)nc2C(=O)NCCCOCCOc2cc(ccn2)-c2nc1cs2 [Example 121]
< 100 | < 1000 | Cn1cc2c(n1)C(=O)NCCOCCNc1cc(ccn1)-c1nc(cs1)C(=O)N2 [Compound 45]
< 100 | < 10000 | O=C1Nc2cn(C3CCOCC3)nc2C(=O)NC2CC(=O)N(CCCc3cc(ccn3)-c3nc1cs3)C2=O (centres unmarked) [Example 200]
< 100 | > 10000 | O=C1Nc2cn(CCN3CCCCC3)nc2C(=O)NCCOCCOc2cc(ccn2)-c2nc1cs2 [Example 116]
< 100 | < 10000 | Cn1cc2c(n1)C(=O)NCCOCCOc1cc(ccn1)-c1nc(cs1)C(=O)N2 [Compound 43]
< 100 | < 1000 | O=C1Nc2ccccc2C(=O)NCCOCCOc2cc(ccn2)-c2nc1cs2 [Example 127]
< 100 | < 1000 | Cn1cc2c(n1)C(=O)NCCOCCCn1cc(cn1)-c1nc(cs1)C(=O)N2 [Example 135]
< 100 | < 1000 | Cn1cc2c(n1)C(=O)NCCC/C=C/CCCNc1cc(ccn1)-c1nc(co1)C(=O)N2 [Example 140]
